# Data as given in paper PMC4640556, “Primary Amine Oxidase of Escherichia coli Is a Metabolic Enzyme that Can Use a Human Leukocyte Molecule as a Substrate” (PLoS ONE, 2015).
# Where two headings read alike, the source gives them in different places.
# Key:
# ECAO [1] = target: T1, ECAO (Escherichia coli, UniProt P46883); test: ECAO inhibitor test (spectroscopic amine oxidase activity assay, purified ECAO, substrate PEA); format: biochemical; conditions: for decrease of ECAO activity by aminoglycoside: aminoglycoside 1 mM (Fig 2C), sisomycin p = 0.06; for IC50: purified ECAO
# T1 construct: made in house; host or cells: E. coli; inferred from the overexpression strain E. coli (pKK233-3-tynA)
# T1 sequence (P46883 31-757): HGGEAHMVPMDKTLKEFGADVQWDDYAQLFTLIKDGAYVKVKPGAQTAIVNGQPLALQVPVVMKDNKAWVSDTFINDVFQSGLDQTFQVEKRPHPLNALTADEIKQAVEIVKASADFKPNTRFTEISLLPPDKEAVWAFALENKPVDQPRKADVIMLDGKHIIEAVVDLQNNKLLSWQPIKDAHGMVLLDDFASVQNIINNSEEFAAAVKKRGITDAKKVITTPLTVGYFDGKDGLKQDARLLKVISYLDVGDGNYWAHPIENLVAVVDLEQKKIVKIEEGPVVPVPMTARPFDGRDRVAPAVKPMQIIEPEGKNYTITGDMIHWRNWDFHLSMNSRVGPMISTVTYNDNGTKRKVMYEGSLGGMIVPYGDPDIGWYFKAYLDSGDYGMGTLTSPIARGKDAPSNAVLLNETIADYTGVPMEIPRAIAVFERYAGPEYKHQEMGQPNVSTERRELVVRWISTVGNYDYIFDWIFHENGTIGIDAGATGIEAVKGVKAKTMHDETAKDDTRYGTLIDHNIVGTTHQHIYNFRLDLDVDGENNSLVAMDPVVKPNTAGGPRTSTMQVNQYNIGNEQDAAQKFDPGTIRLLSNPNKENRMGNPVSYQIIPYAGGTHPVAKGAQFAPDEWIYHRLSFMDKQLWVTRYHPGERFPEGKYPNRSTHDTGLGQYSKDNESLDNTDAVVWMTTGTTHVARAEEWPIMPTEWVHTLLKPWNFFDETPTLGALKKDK
# Experimental: To determine the effect of different inhibitors on ECAO activity, we used purified ECAO protein and a spectroscopic amine oxidase activity assay, which is not as sensitive to additives as the Amplex Red assay. In short, 21 ng of ECAO protein was incubated with differing amounts of inhibitors in Krebs-Ringer phosphate glucose buffer for 20 min at 30°C. After incubation, we added substrate (0.5 mM PEA) and a mixture of 1 mM vanillic acid, 0.5 mM 4-aminopyridine, and 16 U of horseradish peroxidase, and measured the A492nm immediately and hourly thereafter.
# ECAO [2] = target: T1, ECAO; set-up: method as in PMID 7765483; conditions: cited from earlier work
# [3] = test system: tynA+ E. coli and tynA- E. coli; test: Growth inhibition on LA plates (discs with SC); format: cell-based, Escherichia coli; conditions: data not shown
# Experimental: (§1) To assess the effect of inhibitors on bacterial growth, discs with different concentrations of SC were placed on LA plates freshly plated with either tynA+ E. coli (three different strains) or tynA- E. coli (five strains). The inhibition zones were measured the next day. For the growth inhibition assay in a liquid medium, the same strains were cultured in tryptic soy broth (TSB) medium for 14–16 h. Then, 10^3 cells were inoculated into TSB medium with different concentrations (0–100 mg/mL) of SC and cultured further at 37°C with shaking at 100 rpm until the following day. Then, 10 μL of bacterial mixture was plated on lactose medium plates, and the plates were incubated at 37°C for 14–16 h before counting the colonies.
# wt E. coli (tynA+) = test: Growth inhibition assay in liquid medium, wt / tynA+ strains; format: cell-based, Escherichia coli; conditions: SC concentrations lower than 5–10 mM (S5 Fig)
# Experimental: as §1
# (§2) The inhibition of growth by a selective hydrazine-based human amine oxidase inhibitor, BTT-2052 [30], and SC on tynA+ and tynA- strains was tested similarly in M9-lactose-PEA medium using inhibitor concentrations of 0–0.5 mM.
# ECAO [4] = target: T1, ECAO; test: ECAO activity with human granulocytes as sole substrate (Amplex Red, H2O2 production); format: biochemical; conditions: 30 nM ECAO, 200,000 granulocytes per well, 37°C, Cells + ECAO + SC, p = 0.004
# Source text: To test if ECAO has a substrate on human granulocytes, we used purified recombinant protein ECAO, whose production and purification has been described. To collect human neutrophils, we extracted granulocytes from the fresh peripheral blood of healthy volunteers using Ficoll (GE Healthcare). We collected buffy coats according to standard procedure, lysed red blood cells with Pharm Lyse (BD Biosciences, Franklin Lakes, NJ, USA), washed with PBS, counted the cells, and used the cells immediately. The assay was conducted in 25 mM HEPES and 150 mM NaCl (pH 7.4), and we used 30 nM ECAO and 200,000 viable granulocytes per well. PEA was used as a positive control for the substrate, and the specific activity was determined using parallel wells with SC, as described above. The assay was conducted at 37°C. Three independent assays (different blood donors) were performed with duplicates.
# ΔtynA strain = test: Growth inhibition assay in liquid medium, ΔtynA / tynA- strains; format: cell-based, Escherichia coli; conditions: liquid medium (S5 Fig)
# Experimental: as §1, §2
# [5] = PEA, aminoglycoside concentrations 10 μM–10 mM, read-out: half maximal inhibitory concentration (IC50) of aminoglycosides on ECAO activity on PEA
Compound,decrease of ECAO activity by aminoglycoside (ECAO [1]),IC50 (ECAO [1]; [5]),effect on ECAO activity (ECAO [2]),also measured
NC[C@H]1O[C@H](O[C@H]2[C@H](O)[C@@H](O[C@H]3O[C@H](CO)[C@@H](O)[C@H](N)[C@H]3O)[C@H](N)C[C@@H]2N)[C@H](N)C[C@@H]1O [tobramycin],23–61%,800 µM,,
NCC[C@H](O)C(=O)N[C@@H]1C[C@H](N)[C@@H](O[C@H]2O[C@H](CN)[C@@H](O)[C@H](O)[C@H]2O)[C@H](O)[C@H]1O[C@H]1O[C@H](CO)[C@@H](O)[C@H](N)[C@H]1O [amikacin],23–61%,1000 µM,,
NNCCc1ccccc1 [phenelzine],,,inhibited,
CN[C@@H]1[C@@H](O)[C@@H](O[C@@H]2[C@@H](O)[C@H](O[C@H]3OC(CN)=CC[C@H]3N)[C@@H](N)C[C@H]2N)OC[C@]1(C)O [sisomycin],23–61%,,,
Gentamycin,no effect,,,
N[C@@H]1C[C@H]1c1ccccc1 [tranycypromine],,,inhibited,
NO [hydroxylamine],,,inhibited,
NC[C@H]1O[C@H](O[C@H]2[C@H](O)[C@@H](O[C@H]3O[C@H](CO)[C@@H](O)[C@H](N)[C@H]3O)[C@H](N)C[C@@H]2N)[C@H](O)[C@@H](O)[C@@H]1O [kanamycin],23–61%,3800 µM,,
CC(C)NNC(=O)c1ccncc1 [iproniazid],,,inhibited,
"NNC(N)=O [SC, semicarbazide]",,,inhibited,"IC50 (ECAO [1]; 0.5 mM PEA, seven inhibitor concentrations 0.1–10 μM, 30°C, read-out: half maximal inhibitory concentration (IC50) on ECAO activity on PEA): 0.7 µM; effect on bacterial growth on LA plates ([3]; at 100 mg/mL): minimal; effect on bacterial growth on LA plates ([3]; under the concentration of 100 mg/mL): no effect; effect on growth in liquid rich media (wt E. coli (tynA+)): no significant effect; effect on H2O2 production by ECAO with granulocytes as only source of substrate (ECAO [4]): inhibited; effect on growth of the ΔtynA strain (ΔtynA strain): no effect"
